USRE48711E1, “Apoptosis signal-regulating kinase inhibitors” (Gilead Sciences, Inc., priority 2009, dated 2021)
pIC50: −log10 of the molar value. Where two headings read alike, the source gives them in different places.

Molecular target: ASK1 (Apoptosis Signal-Regulating Kinase 1) (Homo sapiens (Human), UniProt Q99683)
Test: ASK1 (Apoptosis Signal-Regulating Kinase 1) TR-FRET Kinase Assay (Biochemical IC50)
[1] = TR-FRET, biotin-MBP substrate, 20 min pre-incubation, ATP added as 300 μM solution

Chain of ASK1 (Apoptosis Signal-Regulating Kinase 1) (Q99683 649-946): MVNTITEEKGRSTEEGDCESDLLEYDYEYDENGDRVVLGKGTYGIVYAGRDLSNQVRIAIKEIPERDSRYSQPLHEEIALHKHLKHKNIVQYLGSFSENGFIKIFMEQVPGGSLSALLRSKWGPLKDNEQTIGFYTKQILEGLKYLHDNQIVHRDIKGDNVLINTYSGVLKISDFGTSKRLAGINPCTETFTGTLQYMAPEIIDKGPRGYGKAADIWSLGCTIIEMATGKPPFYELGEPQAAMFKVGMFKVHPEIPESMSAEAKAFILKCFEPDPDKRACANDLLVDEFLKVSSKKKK

Compound	pIC50 [1]	pIC50
O=C(Nc1cccc(-c2nncn2C2CC2)n1)c1cc(-n2cnc(C3CC3)c2)c2ccccc2n1 [Example 226, 4-(4-cyclopropyl-1H-imidazol-1-yl)-N-(6-(4-cyclopropyl-4H-1,2,4-triazol-3-yl)pyridin-2-yl)quinoline-2-carboxamide]	7.80	–
O=C(Nc1cccc(-c2nncn2C2CC2)n1)c1ccc(Cl)c(-n2cnc(C3CC3)c2)c1 [Example 227, 4-chloro-3-(4-cyclopropyl-1H-imidazol-1-yl)-N-(6-(4-cyclopropyl-4H-1,2,4-triazol-3-yl)pyridin-2-yl)benzamide]	8.10	–
COc1ccc(C(=O)Nc2cccc(-c3nncn3C3CC3)n2)cc1-n1cnc(C2CC2)c1 [Example 228, 3-(4-cyclopropyl-1H-imidazol-1-yl)-N-(6-(4-cyclopropyl-4H-1,2,4-triazol-3-yl)pyridin-2-yl)-4-methoxybenzamide]	8.15	–
COC[C@H](C)n1cnnc1-c1cccc(NC(=O)c2cc(-c3ccc(C4CC4)nc3)ccn2)n1 [Example 234, (S)-6-cyclopropyl-N-(6-(4-(1-methoxypropan-2-yl)-4H-1,2,4-triazol-3-yl)pyridin-2-yl)-3,4′-bipyridine-2′-carboxamide]	8.10	–
COC(c1cn(-c2cccc(C(=O)Nc3cccc(-c4nncn4C4CC4)n3)c2)cn1)C(F)(F)F (stereo not drawn) [Example 235, N-(6-(4-cyclopropyl-4H-1,2,4-triazol-3-yl)pyridin-2-yl)-3-(4-(2,2,2-trifluoro-1-methoxyethyl)-1H-imidazol-1-yl)benzamide]	7.82	–
Cc1cccc(C)c1OC[C@H](C)n1cnnc1-c1cccc(NC(=O)c2cc(-c3ccc(C4CC4)nc3)ccn2)c1 [Example 239, (S)-6-cyclopropyl-N-(3-(4-(1-(2,6-dimethylphenoxy)propan-2-yl)-4H-1,2,4-triazol-3-yl)phenyl)-3,4′-bipyridine-2′-carboxamide]	4.96	–
CN1CCC(n2cnnc2-c2cccc(NC(=O)c3cc(-c4ccc(C5CC5)nc4)ccn3)n2)CC1 [Example 241, 6-cyclopropyl-N-(6-(4-(1-methylpiperidin-4-yl)-4H-1,2,4-triazol-3-yl)pyridin-2-yl)-3,4′-bipyridine-2′-carboxamide]	6.21	–
CC(C)n1ccc2ncc(-c3ccnc(C(=O)Nc4cccc(-c5nncn5C5CC5)c4)c3)cc21 [Example 243, N-(3-(4-cyclopropyl-4H-1,2,4-triazol-3-yl)phenyl)-4-(1-isopropyl-1H-pyrrolo[3,2-b]pyridin-6-yl)picolinamide]	7.82	–
O=C(Nc1cccc(-c2nncn2C2CC2)c1)c1cc(-c2cnc3ccn(CC(F)(F)F)c3c2)ccn1 [Example 244, N-(3-(4-cyclopropyl-4H-1,2,4-triazol-3-yl)phenyl)-4-(1-(2,2,2-trifluoroethyl)-1H-pyrrolo[3,2-b]pyridin-6-yl)picolinamide]	7.60	–
CC(CN1CCCC1)n1cnnc1-c1cccc(NC(=O)c2cc(-c3ccc(C4CC4)nc3)ccn2)n1 (stereo not drawn) [Example 245, 6-cyclopropyl-N-(6-(4-(1-(pyrrolidin-1-yl)propan-2-yl)-4H-1,2,4-triazol-3-yl)pyridin-2-yl)-3,4′-bipyridine-2′-carboxamide]	7.44	–
C[C@H](O)[C@H](C)n1cnnc1-c1cccc(NC(=O)c2cc(-c3ccc(C4CC4)nc3)ccn2)n1 [Example 246, 6-cyclopropyl-N-(6-(4-((2S,3S)-3-hydroxybutan-2-yl)-4H-1,2,4-triazol-3-yl)pyridin-2-yl)-3,4′-bipyridine-2′-carboxamide]	8.22	–
C[C@@H](O)[C@H](C)n1cnnc1-c1cccc(NC(=O)c2cc(-c3ccc(C4CC4)nc3)ccn2)n1 [Example 247, 6-cyclopropyl-N-(6-(4-((2S,3R)-3-hydroxybutan-2-yl)-4H-1,2,4-triazol-3-yl)pyridin-2-yl)-3,4′-bipyridine-2′-carboxamide]	8.00	–
CC(O)[C@@H](C)n1cnnc1-c1cccc(NC(=O)c2cc(-c3ccc(C4CC4)nc3)ccn2)n1 (stereo partly drawn) [Example 248, 6-cyclopropyl-N-(6-(4-((2R)-3-hydroxybutan-2-yl)-4H-1,2,4-triazol-3-yl)pyridin-2-yl)-3,4′-bipyridine-2′-carboxamide]	8.15	–
COc1ccc2ncc(-c3ccnc(C(=O)Nc4cccc(-c5nncn5C5CC5)c4)c3)cc2c1 [Example 251, N-(3-(4-cyclopropyl-4H-1,2,4-triazol-3-yl)phenyl)-4-(6-methoxyquinolin-3-yl)picolinamide]	8.15	–
CC(O)c1nnc(-c2ccnc(C(=O)Nc3cccc(-c4nncn4C4CC4)c3)c2)o1 (stereo not drawn) [Example 252, N-(3-(4-cyclopropyl-4H-1,2,4-triazol-3-yl)phenyl)-4-(5-(1-hydroxyethyl)-1,3,4-oxadiazol-2-yl)picolinamide]	5.47	–
Cc1noc(-c2ccnc(C(=O)Nc3cccc(-c4nncn4C4CC4)c3)c2)n1 [Example 253, N-(3-(4-cyclopropyl-4H-1,2,4-triazol-3-yl)phenyl)-4-(3-methyl-1,2,4-oxadiazol-5-yl)picolinamide]	5.46	–
CN1CCc2c(ncn2-c2ccnc(C(=O)Nc3cccc(-c4nncn4C4CC4)n3)c2)C1C(F)(F)F (stereo not drawn) [Example 256, N-(6-(4-cyclopropyl-4H-1,2,4-triazol-3-yl)pyridin-2-yl)-4-(5-methyl-4-(trifluoromethyl)-4,5,6,7-tetrahydro-1H-imidazo[4,5-c]pyridin-1-yl)picolinamide]	8.40	–
CN1CCc2c(ncn2-c2ccnc(C(=O)Nc3cccc(-c4nncn4C4CC4)c3)c2)C1C(F)(F)F (stereo not drawn) [Example 257, N-(3-(4-cyclopropyl-4H-1,2,4-triazol-3-yl)phenyl)-4-(5-methyl-4-(trifluoromethyl)-4,5,6,7-tetrahydro-1H-imidazo[4,5-c]pyridin-1-yl)picolinamide]	8.22	–

More lines, now with the values ahead:

pIC50 [1]	pIC50	Compound
7.00	–	CCC(C)n1cnnc1-c1cccc(NC(=O)c2cc(-c3ccc(C4CC4)nc3)ccn2)c1 (stereo not drawn) [Example 229, N-(3-(4-sec-butyl-4H-1,2,4-triazol-3-yl)phenyl)-6-cyclopropyl-3,4′-bipyridine-2′-carboxamide]
7.24	–	C[C@@H](C1CC1)n1cnnc1-c1cccc(NC(=O)c2cc(-c3ccc(C4CC4)nc3)ccn2)c1 [Example 230, (S)-6-cyclopropyl-N-(3-(4-(1-cyclopropylethyl)-4H-1,2,4-triazol-3-yl)phenyl)-3,4′-bipyridine-2′-carboxamide]
5.85	–	CCC(CC)n1cnnc1-c1cccc(NC(=O)c2cc(-c3ccc(C4CC4)nc3)ccn2)c1 [Example 231, 6-cyclopropyl-N-(3-(4-(pentan-3-yl)-4H-1,2,4-triazol-3-yl)phenyl)-3,4′-bipyridine-2′-carboxamide]
7.77	–	COC[C@H](C)n1cnnc1-c1cccc(NC(=O)c2cc(-c3ccc(C4CC4)nc3)ccn2)c1 [Example 232, (S)-6-cyclopropyl-N-(3-(4-(1-methoxypropan-2-yl)-4H-1,2,4-triazol-3-yl)phenyl)-3,4′-bipyridine-2′-carboxamide]
7.85	–	Cc1cc(-c2ccc(C3CC3)nc2)cc(C(=O)Nc2cccc(-c3nncn3C3CC3)n2)n1 [Example 233, 6-cyclopropyl-N-(6-(4-cyclopropyl-4H-1,2,4-triazol-3-yl)pyridin-2-yl)-6′-methyl-3,4′-bipyridine-2′-carboxamide]
6.86	–	Cc1ccc2c(-c3ccc(C4CC4)nc3)cc(C(=O)Nc3cccc(-c4nncn4C4CC4)n3)nc2c1C [Example 236, N-(6-(4-cyclopropyl-4H-1,2,4-triazol-3-yl)pyridin-2-yl)-4-(6-cyclopropylpyridin-3-yl)-7,8-dimethylquinoline-2-carboxamide]
7.42	–	CC[C@H](C)n1cnnc1-c1cccc(NC(=O)c2cc(-c3ccc(C4CC4)nc3)ccn2)c1 [Example 237, (S)-N-(3-(4-sec-butyl-4H-1,2,4-triazol-3-yl)phenyl)-6-cyclopropyl-3,4′-bipyridine-2′-carboxamide]
8.22	–	CC(C)[C@H](C)n1cnnc1-c1cccc(NC(=O)c2cc(-c3ccc(C4CC4)nc3)ccn2)c1 [Example 238, (S)-6-cyclopropyl-N-(3-(4-(3-methylbutan-2-yl)-4H-1,2,4-triazol-3-yl)phenyl)-3,4′-bipyridine-2′-carboxamide]
–	6.65	Cc1ccc2c(-c3ccc(C4CC4)nc3)cc(C(=O)Nc3cccc(-c4nncn4C4CC4)c3)nc2c1C [Example 240, N-(3-(4-cyclopropyl-4H-1,2,4-triazol-3-yl)phenyl)-4-(6-cyclopropylpyridin-3-yl)-7,8-dimethylquinoline-2-carboxamide]
5.95	–	C[C@H](n1cnnc1-c1cccc(NC(=O)c2cc(-c3ccc(C4CC4)nc3)ccn2)c1)C(C)(C)C [Example 242, (S)-6-cyclopropyl-N-(3-(4-(3,3-dimethylbutan-2-yl)-4H-1,2,4-triazol-3-yl)phenyl)-3,4′-bipyridine-2′-carboxamide]
7.15	–	Cc1cc(-c2ccc(C3CC3)nc2)cc(C(=O)Nc2cccc(-c3nncn3C3CC3)c2)n1 [Example 249, 6-cyclopropyl-N-(3-(4-cyclopropyl-4H-1,2,4-triazol-3-yl)phenyl)-6′-methyl-3,4′-bipyridine-2′-carboxamide]
8.10	–	Cc1cnc(C(=O)Nc2cccc(-c3nncn3C3CC3)c2)cc1-c1ccc(C2CC2)nc1 [Example 250, 6-cyclopropyl-N-(3-(4-cyclopropyl-4H-1,2,4-triazol-3-yl)phenyl)-5′-methyl-3,4′-bipyridine-2′-carboxamide]
5.90	–	O=C(Nc1cccc(-c2nncn2C2CC2)c1)c1cc(-c2nc(C3CC3)no2)ccn1 [Example 254, 4-(3-cyclopropyl-1,2,4-oxadiazol-5-yl)-N-(3-(4-cyclopropyl-4H-1,2,4-triazol-3-yl)phenyl)picolinamide]
6.16	–	Cn1c(-c2ccnc(C(=O)Nc3cccc(-c4nncn4C4CC4)c3)c2)nnc1C1CC1 [Example 255, 4-(5-cyclopropyl-4-methyl-4H-1,2,4-triazol-3-yl)-N-(3-(4-cyclopropyl-4H-1,2,4-triazol-3-yl)phenyl)picolinamide]
6.07	–	O=C(Nc1cccc(-c2nncn2C2CC2)n1)c1cccc(-c2ccc(C3CC3)nc2)n1 [Example 258, 6′-cyclopropyl-N-(6-(4-cyclopropyl-4H-1,2,4-triazol-3-yl)pyridin-2-yl)-2,3′-bipyridine-6-carboxamide]
